The results in this text go back to publication PMC7956476, “Quinoline Functionalized Schiff Base Silver (I) Complexes: Interactions with Biomolecules and In Vitro Cytotoxicity, Antioxidant and Antimicrobial Activities” (Molecules, 2021).

Test [1] concerns Pseudomonas aeruginosa ATCC 27853. The test is described as follows: Minimum inhibitory concentration (MIC), spotting on Müeller–Hinton agar. Type of test: cell-based. As to conditions: Gram − Ve; P. aeruginosa; 37 °C, 18 h.
Test [2] is described as follows: Ferric reducing antioxidant power (FRAP) assay. As to conditions: done in triplicate. Type of test: biochemical.
The next test relates to calf thymus DNA (CT-DNA). The test is described as follows: CT-DNA electronic absorption titration (Wolfe–Shimer). As to conditions: intrinsic binding constant, absorption titration, PBS pH 7.2. Type of test: binding.

Each structure is given as a SMILES string.

Regarding `[Ag+].[O-][Cl+3]([O-])([O-])[O-].c1ccc2nc(-c3nc4ccccc4s3)ccc2c1.c1ccc2nc(-c3nc4ccccc4s3)ccc2c1` [Complex Q7, [Ag(L2)2]ClO4], the “Minimum inhibitory concentration, PA” value in test [1] is on record as 0.2 µg/mL. In addition, the “Antioxidant (IC50 mg/mL) FRAP” value in test [2] worked out at 1.13 ± 0.044 mg/mL. Moreover, in the test on calf thymus DNA (CT-DNA), the “CT-DNA-Cmp. Kb (M^−1) × 10^5” value is recorded as 15.0 (M^−1) × 10^5.

For the compound `Cc1ccc(N=Cc2ccc3ccccc3n2)cc1.Cc1ccc(N=Cc2ccc3ccccc3n2)cc1.[Ag+].[O-][Cl+3]([O-])([O-])[O-]` [Complex Q9, [Ag(L4)2]ClO4], the “Antioxidant (IC50 mg/mL) FRAP” value in test [2] worked out at 1.62 ± 0.078 mg/mL. In addition, the “CT-DNA-Cmp. Kb (M^−1) × 10^5” value in the test with calf thymus DNA (CT-DNA) was 5.00 (M^−1) × 10^5.
